The source of these data is the Kinase Knowledgebase extract (Sharma et al. 2016).

Usually IC50 stands for the midpoint of a concentration-inhibition curve. A lower IC50 goes with greater potency.

In this assay the target is CDK2 (UniProt P24941). The experiment in a line: Enzyme Assay.
With `O=C1Nc2ncc(-c3ccco3)cc2/C1=C/Nc1ccc2cn[nH]c2c1`, the IC50 was in the range of 1000 to 10000 nM.
For the compound `NS(=O)(=O)c1ccc(N/C=C2\C(=O)Nc3ncc(Br)cc32)cc1`, the IC50 is 10 to 100 nM.
`NS(=O)(=O)c1ccc(N/C=C2\C(=O)Nc3ncccc32)cc1` returned a half-maximal inhibitory concentration (IC50) of 100 to 1000 nM.
Turning to `O=C1Nc2ncc(Br)cc2/C1=C/Nc1ccc2ncccc2c1`, the concentration for half-maximal inhibition (IC50) was 10 to 100 nM.
Under `CCOC(=O)c1cnc2c(c1)/C(=C\Nc1ccc3ncccc3c1)C(=O)N2` stands 100 to 1000 nM; under `O=C1Nc2nc(Cl)ccc2/C1=C/Nc1ccc2cn[nH]c2c1`, 100 to 1000 nM.
The compound `NS(=O)(=O)c1ccc(N/C=C2\C(=O)Nc3ncc(-c4ccccc4)cc32)cc1` showed an IC50 of 1000 to 10000 nM.
The same measure for `O=C1Nc2ncc(Br)cc2/C1=C/Nc1ccc2cn[nH]c2c1`: 10 to 100 nM; for `O=C1Nc2ncc(-c3ccsc3)cc2/C1=C/Nc1ccc2cn[nH]c2c1`: 100 to 1000 nM; for `NS(=O)(=O)c1ccc(N/C=C2\C(=O)Nc3cnccc32)cc1`: 10 to 100 nM.
Under `NS(=O)(=O)c1ccc(N/C=C2\C(=O)Nc3nc(Cl)ccc32)cc1` stands 100 to 1000 nM; under `NS(=O)(=O)c1ccc(N/C=C2\C(=O)Nc3ncc(-c4ccsc4)cc32)cc1`, 100 to 1000 nM; under `CCOC(=O)c1cnc2c(c1)/C(=C/Nc1ccc3cn[nH]c3c1)C(=O)N2`, 10 to 100 nM.
Turning to `NS(=O)(=O)c1ccc(N/C=C2\C(=O)Nc3ccncc32)cc1`, the IC50 lay within 10 to 100 nM.
The compound `NS(=O)(=O)c1ccc(N/C=C2\C(=O)Nc3ncc(-c4ccco4)cc32)cc1` registered an IC50 of 10 to 100 nM.
The same measure for `CCOC(=O)c1cnc2c(c1)/C(=C/Nc1ccc(S(N)(=O)=O)cc1)C(=O)N2`: 10 to 100 nM.
